Measurements from patent US11414384B2, “P300/CBP hat inhibitors” (Constellation Pharmaceuticals, Inc., priority 2018, dated 2022).

Target: p300 HAT domain (residues 1287-1666) (Homo sapiens (Human), UniProt Q09472)
Assay: p300 HAT SPA assay (scintillation proximity assay, acetylation of biotinylated H3(1-21) peptide)
Assay type: biochemical
Conditions: p300 HAT domain; average of at least 2 replicate titrations; read-out: P300 HAT SPA IC50
Description: In a typical experiment the p300 HAT inhibitory activity of the compounds described herein was determined in accordance with the following experimental method.
The expressed protein was purified by Ni2+ affinity, followed by anion exchange chromatography. Appropriate fractions were pooled and buffer exchanged into 20 mM Hepes pH 7.5, 150 mM NaCl, and 1 mM TCEP.
35 μL of the reaction volume was transferred to a 384-well streptavidin FlashPlate (PerkinElmer) using a Bravo liquid handler (Velocity 11) and incubated for 1.5 hr at RT. […] Data were analyzed in Genedata to determine inhibitor IC50 values.

Sequence of p300 HAT domain (residues 1287-1666) (Q09472 1287-1666): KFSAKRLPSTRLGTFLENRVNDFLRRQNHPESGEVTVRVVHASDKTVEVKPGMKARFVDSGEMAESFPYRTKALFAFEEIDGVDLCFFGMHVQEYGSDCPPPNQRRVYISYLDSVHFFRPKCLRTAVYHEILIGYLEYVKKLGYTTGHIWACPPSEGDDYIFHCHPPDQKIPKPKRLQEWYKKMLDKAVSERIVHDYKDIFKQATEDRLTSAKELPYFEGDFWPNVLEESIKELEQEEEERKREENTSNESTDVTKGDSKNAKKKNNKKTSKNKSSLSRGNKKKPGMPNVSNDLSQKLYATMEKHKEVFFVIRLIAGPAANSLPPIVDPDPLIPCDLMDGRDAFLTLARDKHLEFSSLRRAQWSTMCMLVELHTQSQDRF

IC50 [µM]	Structure (SMILES)
> 60	Cc1ccc2c(C(=O)C(NCCc3ccc(S(N)(=O)=O)cc3)c3ccccc3)c[nH]c2c1 (single isomer, unassigned) [56 Isomer 1]
> 5	O=C(c1c[nH]c2ccccc12)C(NCCc1ccc(-c2c[nH]nn2)cc1)c1ccccc1 (single isomer, unassigned) [57 Isomer 1]
0.287	O=C(c1c[nH]c2ccccc12)C(NCCc1ccc(-c2c[nH]nn2)cc1)c1ccccc1 (single isomer, unassigned) [57 Isomer 2]
25.3	N#Cc1ccc(CCNC(C(=O)c2c[nH]c3ccccc23)c2ccccc2)cc1 (single isomer, unassigned) [58 Isomer 1]
> 30	CCC(CNC(C(=O)c1c[nH]c2ccccc12)c1ccccc1)c1ccc(Cl)cc1 (single isomer, unassigned) [59 Isomer 1]
13.8	CCC(CNC(C(=O)c1c[nH]c2ccccc12)c1ccccc1)c1ccc(Cl)cc1 (single isomer, unassigned) [59 Isomer 2]
> 30	CCC(CNC(C(=O)c1c[nH]c2ccccc12)c1ccccc1)c1ccc(Cl)cc1 (single isomer, unassigned) [59 Isomer 3]
27.8	COc1ccc2c(C(=O)C(NCCc3ccc(Cl)cc3)c3ccccc3)c[nH]c2c1 (single isomer, unassigned) [60 Isomer 1]
> 30	O=C(c1c[nH]c2cc(OCc3ccccc3)ccc12)C(NCCc1ccc(F)cc1)c1ccccc1 (single isomer, unassigned) [61 Isomer 1]
0.097	CN1CCC(c2ccc3c(C(=O)C(NCCc4ccc(C#N)cc4)c4ccccc4)c[nH]c3c2)CC1 (single isomer, unassigned) [64 Isomer 1]
0.08	CN1CCC(c2ccc3c(C(=O)C(NCCc4ccc(C#N)cc4)c4ccccc4)c[nH]c3c2)CC1 (single isomer, unassigned) [64 Isomer 2]
> 30	CC(=O)N1CCC(c2ccc3c(C(=O)C(NCCc4ccc(Cl)cc4)c4ccccc4)c[nH]c3c2)CC1 (single isomer, unassigned) [65 Isomer 1]
0.96	Cn1cc(-c2ccc3c(C(=O)C(NCCc4ccc(S(N)(=O)=O)cc4)c4ccccc4)c[nH]c3c2)cn1 (single isomer, unassigned) [66 Isomer 1]
2.36	CNC(=O)c1ccc2c(C(=O)C(NCCc3ccc(C#N)cc3)c3ccccc3)c[nH]c2n1 (single isomer, unassigned) [67 Isomer 1]
> 5	CNC(=O)c1ccc2c(C(=O)C(NCCc3ccc(C#N)cc3)c3ccccc3)c[nH]c2n1 (single isomer, unassigned) [67 Isomer 2]
0.188	CCNC(=O)c1ccc2c(C(=O)C(NCC(C)c3ccc(C#N)cc3)c3ccccc3)cnn2c1 (single isomer, unassigned) [69 Isomer 1]
2.87	CCNC(=O)c1ccc2c(C(=O)C(NCC(C)c3ccc(C#N)cc3)c3ccccc3)cnn2c1 (single isomer, unassigned) [69 Isomer 2]
> 5	CCNC(=O)c1ccc2c(C(=O)C(NCC(C)c3ccc(C#N)cc3)c3ccccc3)cnn2c1 (single isomer, unassigned) [69 Isomer 3]
> 2	CC(CNC(C(=O)c1cnn2cc(C(=O)NC[C@@H](C)O)ccc12)c1ccccc1)c1ccc(C#N)cc1 (single isomer, unassigned) [70 Isomer 1]
0.0643	CC(CNC(C(=O)c1cnn2cc(C(=O)NC[C@@H](C)O)ccc12)c1ccccc1)c1ccc(C#N)cc1 (single isomer, unassigned) [70 Isomer 2]

Structure (SMILES)	IC50 [µM]
Cc1cccc2c(C(=O)C(NC(C)Cc3ccc(Cl)cc3Cl)c3ccccc3)c[nH]c12 (single isomer, unassigned) [68 Isomer 2]	> 30
Cc1cccc2c(C(=O)C(NC(C)Cc3ccc(Cl)cc3Cl)c3ccccc3)c[nH]c12 (single isomer, unassigned) [68 Isomer 3]	> 30
Cc1cccc2c(C(=O)C(NC(C)Cc3ccc(Cl)cc3Cl)c3ccccc3)c[nH]c12 (single isomer, unassigned) [68 Isomer 4]	> 30
